Patent publication US20100317624A1 (ASTRAZENECA AB, priority 2009, published 2010)
Where a name gives a salt, the structure may show the parent alone.

These compounds were tested against S. aureus GyrB ATPase (Staphylococcus aureus, UniProt P0A0K8) (assay: S. aureus GyrB ATPase inhibition (ammonium molybdate/malachite green phosphate detection)). Conditions: compound at 1 μM; inhibition of S. aureus GyrB ATPase; read-out: Percent Inhibition (1 μM).
S. aureus GyrB ATPase, sequence (P0AES4 whole entry): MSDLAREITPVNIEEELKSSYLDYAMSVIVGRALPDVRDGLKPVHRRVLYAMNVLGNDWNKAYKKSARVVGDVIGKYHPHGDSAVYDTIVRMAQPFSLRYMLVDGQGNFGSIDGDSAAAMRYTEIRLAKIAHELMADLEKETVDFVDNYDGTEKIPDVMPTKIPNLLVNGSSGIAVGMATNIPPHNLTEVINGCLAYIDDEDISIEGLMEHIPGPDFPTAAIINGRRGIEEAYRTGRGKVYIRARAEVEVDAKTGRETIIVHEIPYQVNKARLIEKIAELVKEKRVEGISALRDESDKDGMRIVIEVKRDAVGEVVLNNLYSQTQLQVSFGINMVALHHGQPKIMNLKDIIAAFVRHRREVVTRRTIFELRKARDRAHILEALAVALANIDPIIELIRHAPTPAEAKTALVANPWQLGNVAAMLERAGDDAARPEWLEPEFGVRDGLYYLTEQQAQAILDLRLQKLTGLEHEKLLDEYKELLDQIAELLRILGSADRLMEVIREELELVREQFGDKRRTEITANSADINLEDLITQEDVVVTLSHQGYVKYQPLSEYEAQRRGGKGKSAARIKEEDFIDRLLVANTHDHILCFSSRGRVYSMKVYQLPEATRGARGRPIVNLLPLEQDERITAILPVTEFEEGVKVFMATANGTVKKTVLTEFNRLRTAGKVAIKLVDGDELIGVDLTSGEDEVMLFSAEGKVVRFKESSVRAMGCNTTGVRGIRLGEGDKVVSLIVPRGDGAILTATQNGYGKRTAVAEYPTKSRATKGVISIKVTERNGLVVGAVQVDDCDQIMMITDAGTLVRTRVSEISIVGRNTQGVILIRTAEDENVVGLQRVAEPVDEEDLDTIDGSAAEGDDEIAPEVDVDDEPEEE
S. aureus GyrB ATPase, sequence (P0A0K8 whole entry): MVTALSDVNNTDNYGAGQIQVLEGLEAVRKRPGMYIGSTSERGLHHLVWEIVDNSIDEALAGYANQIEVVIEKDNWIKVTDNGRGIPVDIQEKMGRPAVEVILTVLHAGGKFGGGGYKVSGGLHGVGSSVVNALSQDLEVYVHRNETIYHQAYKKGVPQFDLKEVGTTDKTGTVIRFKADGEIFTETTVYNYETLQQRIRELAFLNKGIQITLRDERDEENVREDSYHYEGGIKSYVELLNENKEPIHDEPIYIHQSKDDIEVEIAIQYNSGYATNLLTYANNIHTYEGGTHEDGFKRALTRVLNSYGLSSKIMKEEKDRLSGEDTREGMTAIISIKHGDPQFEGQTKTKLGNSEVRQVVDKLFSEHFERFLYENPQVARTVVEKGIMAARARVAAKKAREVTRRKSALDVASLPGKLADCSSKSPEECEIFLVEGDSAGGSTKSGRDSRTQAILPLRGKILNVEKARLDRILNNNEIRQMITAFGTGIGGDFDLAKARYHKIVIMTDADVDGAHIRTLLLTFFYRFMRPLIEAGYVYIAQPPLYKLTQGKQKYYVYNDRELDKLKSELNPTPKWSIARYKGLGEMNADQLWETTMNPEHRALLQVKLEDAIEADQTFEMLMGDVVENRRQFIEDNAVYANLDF
Assay type: biochemical
Description: S. aureus GyrB ATPase Inhibition Activity: Compounds may be tested for inhibition of S. aureus GyrB ATPase activity using an ammonium molybdate/malachite green-based phosphate detection assay (Lanzetta, P. A., L. J. Alvarez, P. S. Reinach, and O. A. Candia, 1979, 100: 95-97). Assays can be performed in multiwell plates in 30 μl reactions containing: 50 mM Hepes buffer pH 7.5, 75 mM ammonium acetate, 8.0 mM magnesium chloride, 0.5 mM ethylenediaminetetraacetic acid, 5% glycerol, 1.0 mM 1,4-Dithio-DL-threitol, 200 nM bovine serum albumin, 1.0 μg/ml sheared salmon sperm DNA, 250 pM E. coli GyrA, 250 pM S. aureus GyrB, 250 μM ATP, and compound in dimethylsulfoxide. Reactions can be quenched with 30 μl of ammonium molybdate/malachite green detection reagent containing 1.2 mM malachite green hydrochloride, 8.5 mM ammonium molybdate tetrahydrate, and 1 M hydrochloric acid. Plates can be read in an absorbance plate reader at 650 nm and percent inhibition values can be calculated using dimethylsulfoxide (2%)-containing reactions as 0% inhibition and EDTA-containing ([…]) reactions as 100% inhibition controls. An IC50 measurement of compound potency for each compound can be determined from reactions performed in the presence of 10 different compound concentrations.
For `CCNC(=O)Nc1cc(-c2nc(C(F)(F)F)cs2)c(-c2cc3c(=O)c(C(=O)O)cn(CCN(C)C)c3cc2NCCN(C)C)cn1` [Example 55, 1-(2-(dimethylamino)ethyl)-7-(2-(dimethylamino)ethylamino)-6-(6-(3-ethylureido)-4-(4-(trifluoromethyl)thiazol-2-yl)pyridin-3-yl)-4-oxo-1,4-dihydroquinoline-3-carboxylic acid], the inhibition at 1 µM was 100%.
In the case of `CCNC(=O)Nc1cc(-c2nc(C(F)(F)F)cs2)c(-c2ccc3c(c2)c(=O)c(C(=O)OCOC(=O)C(C)(C)C)cn3C(COC)COC)cn1` [Example 39, Pivaloyloxymethyl 1-(1,3-dimethoxypropan-2-yl)-6-(6-(3-ethylureido)-4-(4-(trifluoromethyl)thiazol-2-yl)pyridin-3-yl)-4-oxo-1,4-dihydroquinoline-3-carboxylate], the inhibition at 1 µM was 102%.
Compound `CCNC(=O)Nc1cc(-c2nc(C(F)(F)F)cs2)c(-c2ccc3c(c2)c(=O)c(C(=O)O)cn3[C@H](CC)COP(=O)(O)O)cn1` [Example 6, (R)-6-(6-(3-ethylureido)-4-(4-(trifluoromethyl)thiazol-2-yl)pyridin-3-yl)-4-oxo-1-(1-(phosphonooxy)butan-2-yl)-1,4-dihydroquinoline-3-carboxylic acid] has an inhibition at 1 µM of 96%.
Work on `CCNC(=O)Nc1cc(-c2nc(C(F)(F)F)cs2)c(-c2ccc3c(c2)c(=O)c(C(=O)OCOC(C)=O)cn3C(COC)COC)cn1` [Example 38, Acetoxymethyl 1-(1,3-dimethoxypropan-2-yl)-6-(6-(3-ethylureido)-4-(4-(trifluoromethyl)thiazol-2-yl)pyridin-3-yl)-4-oxo-1,4-dihydroquinoline-3-carboxylate] yielded an inhibition at 1 µM of 105%.
`CCNC(=O)Nc1cc(-c2nc(-c3ccccc3)cs2)c(-c2cc3c(=O)c(C(=O)O)cn(CCN(C)C)c3cc2OCCN2CCOCC2)cn1` [Example 48, 1-(2-(dimethylamino)ethyl)-6-(6-(3-ethylureido)-4-(4-phenylthiazol-2-yl)pyridin-3-yl)-7-(2-morpholinoethoxy)-4-oxo-1,4-dihydroquinoline-3-carboxylic acid] gave an inhibition at 1 µM of 99%.
With `CCNC(=O)Nc1cc(-c2nc(C(F)(F)F)cs2)c(-c2ccc3c(c2)c(=O)c(C(=O)OCCOC(=O)C(C)(C)C)cn3C(COC)COC)cn1` [Example 44, 2-(pivaloyloxy)ethyl 1-(1,3-dimethoxypropan-2-yl)-6-(6-(3-ethylureido)-4-(4-(trifluoromethyl)thiazol-2-yl)pyridin-3-yl)-4-oxo-1,4-dihydroquinoline-3-carboxylate] the inhibition at 1 µM was 98%.
Compound `CCNC(=O)Nc1cc(-c2nc(C(F)(F)F)cs2)c(-c2ccc3c(=O)c(C(=O)NCCCOP(=O)(O)O)cn(CCC(C)C)c3c2)cn1` [Example 16, 3-({[7-{6-[(ethylcarbamoyl)amino]-4-[4-(trifluoromethyl)-1,3-thiazol-2-yl]pyridin-3-yl}-1-(3-methylbutyl)-4-oxo-1,4-dihydroquinolin-3-yl]carbonyl}amino)propyl dihydrogen phosphate] has an inhibition at 1 µM of 100%.
`CCNC(=O)Nc1cc(-c2nc(C(F)(F)F)cs2)c(-c2ccc3c(c2)c(=O)c(C(=O)NCCOP(=O)(O)O)cn3C2CC2)cn1` [Example 9, 2-(1-cyclopropyl-6-(6-(3-ethylureido)-4-(4-(trifluoromethyl)thiazol-2-yl)pyridin-3-yl)-4-oxo-1,4-dihydroquinoline-3-carboxamido)ethyl dihydrogen phosphate hydrochloride] was tested, and the inhibition at 1 µM was 103%.
`CCNC(=O)Nc1cc(-c2nc(C(F)(F)F)cs2)c(-c2cc3c(=O)c(C(=O)O)cn(C4CC4)c3cc2Cl)cn1` [Example 54, 7-chloro-1-cyclopropyl-6-(6-(3-ethylureido)-4-(4-(trifluoromethyl)thiazol-2-yl)pyridin-3-yl)-4-oxo-1,4-dihydroquinoline-3-carboxylic acid] was tested, and the inhibition at 1 µM was 126%.
